The numbers were not newly measured in patent US12605385B2, “Methotrexate formulation” (Therakind Ltd., priority 2014, dated 2026), which cites them from elsewhere.

Like-named read-outs stand apart in the source and are kept apart here.

For series [1] the following is noted: 50% v/v propylene glycol: water formulation.

On to `CN(Cc1cnc2nc(N)nc(N)c2n1)c1ccc(C(=O)N[C@@H](CCC(=O)O)C(=O)O)cc1` [Methotrexate, 4-amino-N^10-methylpteroylglutamic acid], for which the solubility result was “freely soluble” (in alkaline solution); “slightly soluble” (in hydrochloric acid); “almost insoluble” (in water, alcohol, chloroform and ether). Moreover, the “drug solubility on increasing the vehicle pH to 6.34” value in series [1] was “further increased”. Also, the “solubility at pH 5.29 compared with pH 4” value in series [1] is listed as “significantly higher”.
